We go through one molecule from ChEMBL document CHEMBL6071152, “Design, synthesis, and biological evaluation of oridonin derivatives as novel NLRP3 inflammasome inhibitors for the treatment of acute lung injury” (Eur J Med Chem, 2024).

The target in assay [1] is NACHT, LRR and PYD domains-containing protein 3 (Mus musculus) (UniProt Q8R4B8). The assay is described as follows: Inhibition of NLRP3 inflammasome activation in ICR mouse BMDM assessed as inhibition of LPS/nigericin-stimulated IL-1 beta expression in cell supernatant at 1 uM treated for 3 hrs with LPS followed by incubation with compound for 1 hr and later stimulated with nigericin for 0.5 hrs by western blot analysis. Type of assay: cell-based. The settings on record: time 1.5 hrs. (A western blot detects proteins with antibodies after separation by electrophoresis.)
Chain of NACHT, LRR and PYD domains-containing protein 3 (Mus musculus) (Q8R4B8 whole entry, the tested form may be a part): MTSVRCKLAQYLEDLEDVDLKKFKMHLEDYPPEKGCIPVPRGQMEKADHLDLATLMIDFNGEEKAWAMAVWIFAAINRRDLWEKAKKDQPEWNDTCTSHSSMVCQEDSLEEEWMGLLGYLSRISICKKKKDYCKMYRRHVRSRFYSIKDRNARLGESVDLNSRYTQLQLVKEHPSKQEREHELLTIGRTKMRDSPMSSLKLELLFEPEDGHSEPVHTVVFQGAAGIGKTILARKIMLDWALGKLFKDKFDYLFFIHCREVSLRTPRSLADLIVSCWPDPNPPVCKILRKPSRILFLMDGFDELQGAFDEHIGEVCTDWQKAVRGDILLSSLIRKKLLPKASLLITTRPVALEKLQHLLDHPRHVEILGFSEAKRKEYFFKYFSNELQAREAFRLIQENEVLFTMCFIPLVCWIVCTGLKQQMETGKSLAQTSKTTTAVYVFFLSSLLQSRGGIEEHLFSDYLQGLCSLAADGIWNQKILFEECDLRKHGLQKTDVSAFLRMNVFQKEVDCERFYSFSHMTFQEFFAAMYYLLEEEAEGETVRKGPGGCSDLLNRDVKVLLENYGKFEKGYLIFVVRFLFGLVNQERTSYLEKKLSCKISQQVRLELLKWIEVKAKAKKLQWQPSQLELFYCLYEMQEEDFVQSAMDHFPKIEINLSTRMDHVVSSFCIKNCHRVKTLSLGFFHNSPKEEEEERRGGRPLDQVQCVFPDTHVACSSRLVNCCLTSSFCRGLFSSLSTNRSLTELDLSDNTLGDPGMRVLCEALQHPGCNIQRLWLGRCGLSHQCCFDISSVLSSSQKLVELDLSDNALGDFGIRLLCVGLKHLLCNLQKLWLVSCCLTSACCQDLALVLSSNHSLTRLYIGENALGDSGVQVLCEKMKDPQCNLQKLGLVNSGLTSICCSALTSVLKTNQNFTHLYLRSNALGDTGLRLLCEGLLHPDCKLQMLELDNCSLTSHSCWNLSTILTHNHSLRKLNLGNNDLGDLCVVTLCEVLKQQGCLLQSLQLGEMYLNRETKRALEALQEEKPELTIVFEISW

Assay [2] concerns the target NLR family CARD domain-containing protein 4 (Mus musculus) (UniProt Q3UP24). The assay is described as follows: Inhibition of NLRC4 inflammasome activation in ICR mouse BMDM assessed as inhibition of FLA-ST-stimulated IL-1 beta expression in cell supernatant at 1 uM treated for 3 hrs with LPS followed by incubation with compound for 1 hr and later stimulated with FLA-ST for 2 hrs by western blot analysis. Type of assay: cell-based.

In assay [3] the test system is Mus musculus. The assay is described as follows: Anti-inflammatory activity against LPS-stimulated acute lung injury C57BL/6 mouse model assessed as decrease in IL-1 beta level in BALF at 0.1 to 1 mg/kg, ip treated for 3 days and on third day administered with LPS at 30 mins post-compound challenge and measured after 12 hrs by ELISA. Type of assay: functional, organism-based. The following applies: dose 0.1-1 mg/kg, time 3.5 day.

Assay [4] deals with NACHT, LRR and PYD domains-containing protein 3 (Mus musculus) (UniProt Q8R4B8). The assay is described as follows: Inhibition of NLRP3 inflammasome priming in ICR mouse BMDM assessed as inhibition of pro-caspase-1 protein expression in cell lysate at 1 uM treated for 3 hrs with LPS followed by incubation with compound for 1 hr and later stimulated with ATP for 0.5 hrs by western blot analysis. The following applies: time 1.5 hrs. The format is subcellular.

The test system of assay [5] is Mus musculus. Briefly: Anti-inflammatory activity against LPS-stimulated acute lung injury C57BL/6 mouse model assessed as decrease in TNF-alpha level in serum at 0.1 to 1 mg/kg, ip treated for 3 days and on third day administered with LPS at 30 mins post-compound challenge and measured after 12 hrs by ELISA. Type of assay: functional, organism-based. The settings on record: dose 0.1-1 mg/kg, time 3.5 day.

Assay [6] concerns the target NACHT, LRR and PYD domains-containing protein 3 (Mus musculus) (UniProt Q8R4B8). The assay is described as follows: Inhibition of NLRP3 inflammasome priming in ICR mouse BMDM assessed as inhibition of pro-IL-1 beta expression in cell supernatant at 0.2 to 5 uM pretreated with compound for 1 hr followed by stimulation with LPS for 3 hrs and later incubated with ATP for 30 mins by western blot analysis. The settings on record: dose 0.2-5 µM, time 4.5 hrs. Type of assay: cell-based.

The test system of assay [7] is Mus musculus. The assay is described as follows: Anti-inflammatory activity against LPS-stimulated acute lung injury C57BL/6 mouse model assessed as decrease in inflammatory cell infiltration in right lung at 1 to 10 mg/kg, ip treated for 3 days and on third day administered with LPS at 30 mins post-compound challenge and measured after 12 hrs by Hematoxylin-Eosin staining analysis. Type of assay: functional, organism-based. The settings on record: dose 1-10 mg/kg, time 3.5 day.

Assay [8] deals with NACHT, LRR and PYD domains-containing protein 3 (Mus musculus) (UniProt Q8R4B8). Briefly: Inhibition of NLRP3 inflammasome priming in ICR mouse BMDM assessed as inhibition of pro-IL-1 beta expression in cell lysate at 1 uM treated for 3 hrs with LPS followed by incubation with compound for 1 hr and later stimulated with nigericin for 0.5 hrs by western blot analysis. The following applies: time 1.5 hrs. Type of assay: subcellular.

Assay [9] has as its system Mus musculus. Briefly: Anti-inflammatory activity against LPS-stimulated acute lung injury C57BL/6 mouse model assessed as decrease in TNF-alpha mRNA expression in right lung at 0.1 to 1 mg/kg, ip treated for 3 days and on third day administered with LPS at 30 mins post-compound challenge and measured after 12 hrs by RT-qPCR analysis. The format is functional, organism-based. The following applies: dose 0.1-1 mg/kg, time 3.5 day. On the technique in general: Real-time PCR tracks product formation cycle by cycle.

Assay [10] deals with Mus musculus. The assay is described as follows: Anti-inflammatory activity against LPS-stimulated acute lung injury C57BL/6 mouse model assessed as decrease in partial alveolar congestion in right lung at 1 to 10 mg/kg, ip treated for 3 days and on third day administered with LPS at 30 mins post-compound challenge and measured after 12 hrs by Hematoxylin-Eosin staining analysis. Type of assay: functional, organism-based. The settings on record: dose 1-10 mg/kg, time 3.5 day.

Assay [11] deals with T1, Interferon-inducible protein AIM2 (Mus musculus) (UniProt Q91VJ1).
T1 sequence (whole entry): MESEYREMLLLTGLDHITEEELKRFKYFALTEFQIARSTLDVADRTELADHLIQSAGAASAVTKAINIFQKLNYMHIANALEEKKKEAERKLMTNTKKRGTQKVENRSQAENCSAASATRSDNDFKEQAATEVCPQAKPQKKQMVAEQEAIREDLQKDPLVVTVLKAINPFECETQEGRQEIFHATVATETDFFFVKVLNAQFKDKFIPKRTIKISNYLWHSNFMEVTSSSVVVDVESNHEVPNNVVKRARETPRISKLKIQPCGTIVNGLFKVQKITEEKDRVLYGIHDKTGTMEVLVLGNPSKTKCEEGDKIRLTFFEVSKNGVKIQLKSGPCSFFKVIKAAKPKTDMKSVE
The assay is described as follows: Inhibition of AIM2 inflammasome activation in ICR mouse BMDM assessed as inhibition of poly(dA:dT)-stimulated IL-1 beta secretion in cell supernatant at 1 uM treated for 3 hrs with LPS followed by incubation with compound for 1 hr and later cells transfected with poly(dA:dT) for 4 hrs by ELISA. The following applies: time 5.0 hrs. Type of assay: cell-based.

For assay [12], the target named is NACHT, LRR and PYD domains-containing protein 3 (Mus musculus) (UniProt Q8R4B8). The assay is described as follows: Inhibition of NLRP3 inflammasome priming in ICR mouse BMDM assessed as inhibition of pro-IL1 beta protein expression in cell lysate at 1 uM treated for 3 hrs with LPS followed by incubation with compound for 1 hr and later stimulated with MSU for 4 hrs by western blot analysis. The format is subcellular. The following applies: time 5.0 hrs.

Assay [13] has as its system Mus musculus. The assay is described as follows: Anti-inflammatory activity against LPS-stimulated acute lung injury C57BL/6 mouse model assessed as decrease in thickening of alveolar septa in right lung at 1 to 10 mg/kg, ip treated for 3 days and on third day administered with LPS at 30 mins post-compound challenge and measured after 12 hrs by Hematoxylin-Eosin staining analysis. Type of assay: functional, organism-based. The settings on record: dose 1-10 mg/kg, time 3.5 day.

Assay [14] concerns Mus musculus. The assay is described as follows: Anti-inflammatory activity against LPS-stimulated acute lung injury C57BL/6 mouse model assessed as decrease in alveolar dilation in right lung at 1 to 10 mg/kg, ip treated for 3 days and on third day administered with LPS at 30 mins post-compound challenge and measured after 12 hrs by Hematoxylin-Eosin staining analysis. The format is functional, organism-based. The following applies: dose 1-10 mg/kg, time 3.5 day.

Activity calls are given as the source filed them. The rule behind the calls is not given here.

Chain of NLR family CARD domain-containing protein 4 (Mus musculus) (Q3UP24 whole entry, the tested form may be a part): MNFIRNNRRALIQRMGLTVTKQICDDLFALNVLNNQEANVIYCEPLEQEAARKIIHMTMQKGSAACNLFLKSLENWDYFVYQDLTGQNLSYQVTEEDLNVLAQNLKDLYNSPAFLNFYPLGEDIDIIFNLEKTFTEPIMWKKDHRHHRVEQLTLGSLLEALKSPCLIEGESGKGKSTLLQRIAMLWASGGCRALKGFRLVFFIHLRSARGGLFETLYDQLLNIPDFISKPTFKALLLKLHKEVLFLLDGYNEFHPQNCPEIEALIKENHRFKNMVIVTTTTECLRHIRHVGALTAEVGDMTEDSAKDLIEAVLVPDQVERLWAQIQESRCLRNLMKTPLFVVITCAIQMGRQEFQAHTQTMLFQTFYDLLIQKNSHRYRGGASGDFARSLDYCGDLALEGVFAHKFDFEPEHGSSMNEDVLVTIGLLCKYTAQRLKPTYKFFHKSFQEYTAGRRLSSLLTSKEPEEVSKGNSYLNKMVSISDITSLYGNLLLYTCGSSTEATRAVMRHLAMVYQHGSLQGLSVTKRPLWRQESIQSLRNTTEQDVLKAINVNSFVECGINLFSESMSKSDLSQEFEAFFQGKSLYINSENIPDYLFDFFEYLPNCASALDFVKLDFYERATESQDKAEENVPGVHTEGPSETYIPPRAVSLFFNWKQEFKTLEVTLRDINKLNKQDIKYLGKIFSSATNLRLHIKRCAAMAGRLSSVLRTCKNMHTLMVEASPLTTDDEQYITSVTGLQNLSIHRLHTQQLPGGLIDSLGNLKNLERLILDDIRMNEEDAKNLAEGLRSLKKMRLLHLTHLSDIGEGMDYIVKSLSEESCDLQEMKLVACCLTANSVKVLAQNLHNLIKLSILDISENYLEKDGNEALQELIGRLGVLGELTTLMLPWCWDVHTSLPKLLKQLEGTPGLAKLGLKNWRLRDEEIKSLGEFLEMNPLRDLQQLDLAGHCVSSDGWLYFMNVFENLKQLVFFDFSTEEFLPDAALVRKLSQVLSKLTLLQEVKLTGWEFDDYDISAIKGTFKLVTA

With `C=C1C(=O)[C@]23[C@H](OC(=O)Nc4ccc(F)cc4)[C@H]1CC[C@H]2[C@]12C=CCC(C)(C)[C@H]1[C@H](O)[C@@]3(O)OC2`, the inhibition result in assay [1] is “Active”. The inhibition result in assay [2], in assay [4], in assay [6], in assay [8], in assay [11] and in assay [12] was “inactive” each time. The Activity entry in the assay with Mus musculus [3], in the assay on Mus musculus [5] and in the assay on Mus musculus [9] was “Dose-Dependent Effect” each time. In addition, the outcome in the assay on Mus musculus [7], in the assay on Mus musculus [10], with Mus musculus [13] and in the assay on Mus musculus [14] was Active.
